{
  "source": "paper PMC3389674",
  "about": "“Comparison of Soluble Guanylate Cyclase Stimulators and Activators in Models of Cardiovascular Disease Associated with Oxidative Stress” (Frontiers in Pharmacology, 2012)",
  "key": {"rabbit hearts": {"system": "rabbit hearts", "design": "method as in Krieg et al., 2009; Cohen et al., 2010", "conditions": "administered 5 min prior to reperfusion following 30 min regional ischemia; ref Krieg et al., 2009; Cohen et al., 2010; cited from earlier work"}, "dogs": {"system": "dogs", "design": "method as in Korkmaz et al., 2009", "conditions": "administered 5 min prior to reperfusion following 60 min global cardiac ischemia; ref Korkmaz et al., 2009; cited from earlier work"}, "rat hearts": {"system": "rat hearts", "design": "method as in Krieg et al., 2009", "conditions": "administered 5 min prior to reperfusion following 30 min regional ischemia; ref Krieg et al., 2009; cited from earlier work"}, "SHR-SP isolated aorta": {"system": "SHR-SP isolated aorta", "assay": "vasoactivity of SHR-SP isolated aorta (ND, HSFD and after chronic treatment)", "design": "species or system rat", "conditions": "for EC50: Rattus norvegicus", "protocol": "In separate studies, endothelial function was assessed following chronic (7 week) BAY 60-4552 or GSK2181236A treatment in SHR-SP on HSFD. SHR-SP fed either normal or HSFD served as controls. Rats were anesthetized and thoracic aorta were isolated and treated with KCl and phenylephrine as described above. Cumulative concentration-response curves to phenylephrine were obtained by adding 0.5 log unit increments (1 nM to 3 μM). Following several washes with KHB, each vessel was contracted to equilibrium with 0.3 μM phenylephrine and tone was reversed by adding cumulative amounts of carbachol at 0.5 log unit intervals (10 nM to 30 μM). Following several KHB washes, the tissues were again contracted to equilibrium with 0.3 μM phenylephrine and tone was reversed by adding cumulative amounts of SNP at 0.5 log unit intervals (0.1 nM to 3 μM). In separate tissues from both the normal and HSFD SHR-SP control groups, the direct vasodilatory effects of BAY 60-4552 and GSK2181236A were investigated. Contractile tone induced by 0.3 μM phenylephrine was reversed by adding cumulative concentrations of BAY 60-4552 or GSK2181236A to the tissue baths at log increments (0.1 nM to 10 μM)."}},
  "note": "Read-outs that look alike come from different tables or passages of the source.",
  "data": [
    {"compound": "O=C(O)CCCCN(CCc1ccccc1OCc1ccc(CCc2ccccc2)cc1)Cc1ccc(C(=O)O)cc1", "note": "[BAY 58-2667]", "values": [
      {"measurement": "infarct size", "setting": "rabbit hearts", "value": "decreased infarct size"},
      {"measurement": "cardiac function", "setting": "dogs", "value": "improved cardiac function"},
      {"measurement": "infarct size", "setting": "rat hearts", "value": "decreased infarct size"}
    ]},
    {"compound": "C[N+](C)(C)CCOC(N)=O", "note": "[Carbachol, carbachol]", "values": [
      {"measurement": "EC50", "setting": "SHR-SP isolated aorta; aorta from HSFD SHR-SP, read-out: Carbachol EC50 (vasodilation)", "value": "0.26 ± 0.074", "unit": "µM"},
      {"measurement": "EC50", "setting": "SHR-SP isolated aorta; aorta from ND SHR-SP, read-out: Carbachol EC50 (vasodilation)", "value": "0.119 ± 0.015", "unit": "µM"},
      {"measurement": "Carbachol Emax", "setting": "SHR-SP isolated aorta; aorta from HSFD SHR-SP", "value": "47 ± 11 % reversal of PE tone"},
      {"measurement": "Carbachol Emax", "setting": "SHR-SP isolated aorta; aorta from ND SHR-SP", "value": "85 ± 3 % reversal of PE tone"}
    ]},
    {"compound": "CNC[C@H](O)c1cccc(O)c1", "note": "[Phenylephrine, phenylephrine]", "values": [
      {"measurement": "EC50", "setting": "SHR-SP isolated aorta; aorta from HSFD SHR-SP, read-out: Phenylephrine EC50 (contraction)", "value": "0.072 ± 0.011", "unit": "µM"},
      {"measurement": "EC50", "setting": "SHR-SP isolated aorta; aorta from ND SHR-SP, read-out: Phenylephrine EC50 (contraction)", "value": "0.067 ± 0.006", "unit": "µM"},
      {"measurement": "Phenylephrine Emax", "setting": "SHR-SP isolated aorta; aorta from HSFD SHR-SP", "value": "83 ± 10", "unit": "% KCl"},
      {"measurement": "Phenylephrine Emax", "setting": "SHR-SP isolated aorta; aorta from ND SHR-SP", "value": "90 ± 4", "unit": "% KCl"}
    ]}
  ]
}
